Measured values as given in patent US20070104649A1, “Optically fluorescent nanoparticles” (priority 2005, published 2007).

Assay: UV-Vis absorption spectra of co-aggregate (J-aggregate) formation
Assay type: physicochemical
Conditions: non-aggregated dye
Protocol: An aqueous solution of 0.1% (w/v) PEI (1.8, 10, 70, or 750 kDa) is gently stirred, and an aqueous solution of 0.02% (w/v) TITCC is instantly added. This composition is further agitated at about 4° C. for about 30-45 minutes under UV protection. The aggregation progress is monitored by UV-Vis spectra starting from 900 nm down to 600 nm.
This is confirmed by the absence of the starting wavelength of 756 nm of the pure dye, and by the new wavelength maximum at approximately 800 nm from the J-aggregates. In case of 100 and 125% surplus of PEI, the two wavelength maxima indicate that the dye is only partially bound as J-aggregate. Therefore, the wavelength of the pure dye and the wavelength maximum of the J-aggregates can be detected side by side. All measured samples contained the same concentration of dye. The absorption is reduced due to the quenching effects in the J-aggregates. UV-Vis spectra were recorded by UV-2401-PC spectrophotometer (Shimadzu Corp.).
This may be due to a more compact dye-polymer-complex if fewer cationic charges for stabilisation are available. Vice versa, the complexes are less compact having a greater amount of polymer which results in a smaller shift to approximately 795 nm.

absorption wavelength maximum of the pure dye: 756 nm
SMILES: CC(C=CC=C1N(CCS(=O)(=O)[O-])c2ccc(S(=O)(=O)[O-])cc2C1(C)C)=CC=CC1=[N+](CCS(=O)(=O)[O-])c2ccc(S(=O)(=O)[O-])cc2C1(C)C.[Na+].[Na+].[Na+] [TITCC, trisodium-3,3-dimethyl-2-{4-methyl-7-[3,3-dimethyl-5-sulfonato-1-(2-sulfonatoethyl)-3H-indolium-2-yl]hepta-2,4,6-trien-1-ylidene}-1-(2-sulfonatoethyl)-2,3-dihydro-1H-indole-5-sulfonate, inner salt]
